Values quoted from earlier work, collected in paper PMC9308844, “Development of new copper-64 labeled rhodamine: a potential PET myocardial perfusion imaging agent” (EJNMMI Radiopharmacy and Chemistry, 2022).

Parameters: method as in earlier work
Conditions: ref Baranyai et al. [2020]; Clarke et al. 1990; Clarke and Martell [1991a], [b]; Wadas et al. [2010]; Tolmachev et al. [2017]

O=C([O-])CN1CCN(CC(=O)[O-])CCN(CC(=O)[O-])CC1.[Cu+2] [[Cu^II NOTA]]
Log K of Cu^II complex: 21.6
